Results taken from ChEMBL document CHEMBL1130389, “Synthesis and ligand binding studies of 4'-iodobenzoyl esters of tropanes and piperidines at the dopamine transporter” (J Med Chem, 1997).
pIC50: −log10 of the molar value.

Molecular target: Sodium-dependent dopamine transporter (Rattus norvegicus, UniProt P23977)
Assay: Compound was tested for inhibitory activity to displace [3H]WIN-35428 at dopamine transporter in Rat Striatal Membranes.

Sequence of Sodium-dependent dopamine transporter (P23977 whole entry): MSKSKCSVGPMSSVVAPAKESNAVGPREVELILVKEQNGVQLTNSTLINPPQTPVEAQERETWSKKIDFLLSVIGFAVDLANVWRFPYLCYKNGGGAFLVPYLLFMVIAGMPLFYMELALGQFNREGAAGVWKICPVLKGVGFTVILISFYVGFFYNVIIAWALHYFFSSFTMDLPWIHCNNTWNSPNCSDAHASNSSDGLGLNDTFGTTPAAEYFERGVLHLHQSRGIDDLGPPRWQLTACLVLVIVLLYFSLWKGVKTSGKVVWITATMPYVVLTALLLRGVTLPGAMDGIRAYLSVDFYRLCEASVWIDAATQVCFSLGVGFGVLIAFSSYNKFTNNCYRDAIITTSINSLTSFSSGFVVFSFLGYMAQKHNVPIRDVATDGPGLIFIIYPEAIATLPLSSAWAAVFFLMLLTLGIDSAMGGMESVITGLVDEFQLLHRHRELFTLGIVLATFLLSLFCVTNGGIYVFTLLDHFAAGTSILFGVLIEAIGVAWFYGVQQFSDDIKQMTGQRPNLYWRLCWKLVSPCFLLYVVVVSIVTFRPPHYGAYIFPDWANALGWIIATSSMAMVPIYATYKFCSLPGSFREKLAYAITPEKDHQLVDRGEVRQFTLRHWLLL

SMILES	pIC50
COC(=O)[C@H]1[C@@H](OC(=O)c2ccc(I)cc2O)C[C@H]2CC[C@H]1N2C	6.67
COC(=O)[C@H]1[C@@H](OC(=O)c2ccccc2O)C[C@H]2CC[C@H]1N2C	7.60
COC(=O)[C@H]1[C@@H](OC(=O)c2ccccc2OC(C)=O)CC2CC[C@H]1N2C	7.16
COC(=O)[C@@H]1C2CC[C@H](C[C@@H]1OC(=O)c1ccc(O)cc1)N2C	6.82
COC(=O)[C@@H]1C2CC[C@H](C[C@@H]1OC(=O)c1cccc(O)c1)N2C	5.93
COC(=O)C1CN(C)CC[C@@H]1OC(=O)c1ccc(I)cc1 (some centres not stated)	5.09
CN1CCC(OC(=O)c2ccc(I)cc2)CC1	4.94
